Common to all, as to test: NCI anticancer screen, dose series, 48 h
Test [1] deals with MALME-3M melanoma.
For test [2], the system named is UACC-257 melanoma.
The subject of test [3] is MCF7 breast.
Test [4] has as its system TK-10 renal.
Test [5] concerns SK-OV-3 ovarian.
Test [6] concerns NCI-H23 lung.
For test [7], the system named is SK-MEL-5 melanoma.
The test system of test [8] is HT29 colon.
The test system of test [9] is U251 CNS.
Test [10] relates to MOLT-4 leukemia.
Test [11] relates to OVCAR-8 ovarian.
The test system of test [12] is SK-MEL-2 melanoma.
Test [13] deals with M14 melanoma.
The test system of test [14] is HCT-116 colon.
Test [15] deals with MDA-MB-435.
Test [16] has as its system UO-31 renal.
Test [17] deals with DU-145 prostate.
Test [18] concerns CAKI-1 renal.
For test [19], the system named is MDA-MB-231 breast.
Test [20] deals with SF-539 CNS.

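Compound exposure: 48 hours, 5 concentrations, 96-well plates. TGI denotes the concentration required for complete inhibition of growth.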

Take `Cc1cc(C)c(S(=O)(=O)N2CCCN(S(=O)(=O)c3c(C)cc(C)cc3C)OCCCO2)c(C)c1`: the TGI in test [1], in [2], in test [3], in test [4], in [5] and in test [6] was over 100 µM throughout. Further, the TGI in test [7], in test [8], in test [9], in [10], in test [11] and in [12] was over 100 µM throughout. The TGI in [13], in test [14], in test [15], in test [16], in test [17] and in [18] was over 100 µM throughout. This compound gave a TGI in [19] of over 100 µM.

In the case of `COC(=O)c1ccc(NC(=O)O/N=C(\Cl)C(C)C)cc1`, the TGI stood at 3.48 µM in [1]; 28.6 µM in [2]; 19.1 µM in test [3]; 10.3 µM in test [4]; 31.7 µM in test [5]; 39.3 µM in [6]. Besides, the TGI amounted to 16.1 µM in test [7]; 29.4 µM in [8]; 30.9 µM in test [9]; 6 µM in test [10]; 32.5 µM in test [11]; 31.5 µM in test [12]. Further, the TGI was 12 µM in [13]; 17.2 µM in test [14]; 25.5 µM in [15]; 28.7 µM in [16]; 35.1 µM in [17]; 3.08 µM in test [18]. The compound further had a TGI in test [19] of 15.6 µM.

As for `O=C1c2ccccc2C(=O)N1CC1S(=O)(=O)OCCOS1(=O)=O`, the TGI in test [1], in test [2], in [3], in test [4], in test [5] and in [20] was over 100 µM throughout. Moreover, the TGI in test [6], in [7], in [8], in [9], in test [10] and in test [11] was over 100 µM each time. Also, the TGI in test [13], in [14], in test [15], in test [16], in test [17] and in test [18] was over 100 µM in each case. In [19], this compound registered a TGI of over 100 µM.

For `O=c1c2cc(-c3ccccc3)sc2nc2n1N=C(c1ccc(Cl)cc1)CS2`, the TGI in test [1], in [2], in [3], in test [4], in test [5] and in [20] was over 100 µM throughout. Also, the TGI in test [6], in test [7], in test [8], in [9], in test [10] and in test [11] was over 100 µM each time. Moreover, the TGI in test [14], in test [15], in test [16], in test [17], in test [18] and in test [19] was over 100 µM in each case.

In the case of `CC(C)(Oc1ccccc1)C(=O)Sc1c(-c2ccccc2)c(=O)n(-c2ccccc2)c(=S)n1-c1ccccc1`, the TGI was over 100 µM in [1]; over 100 µM in test [2]; over 100 µM in test [3]; over 100 µM in [4]; 87.1 µM in [5]; 45.4 µM in test [20]. Further, the TGI in test [6] was over 100 µM; in test [8] it was over 100 µM; in test [9] it was 56.5 µM; in test [10] it was over 100 µM; in [11], 44.1 µM; in [13] it was over 100 µM. Also, the TGI was over 100 µM in [14]; 52.4 µM in test [15]; 82.8 µM in test [16]; over 100 µM in test [17]; over 100 µM in [18]; 73.8 µM in test [19].

Consider `Nc1nc2c(c(=O)[nH]1)C(c1ccccc1)CC(=O)N2` (stereo not given), for which the TGI in [1], in test [2], in test [3], in test [4], in [5] and in [20] was over 100 µM in each case. Besides, the TGI in [6], in test [7], in test [8], in [9], in test [10] and in [11] was over 100 µM each time. The TGI in test [12], in test [13], in test [14], in [15], in test [16] and in test [17] was over 100 µM in each case. Further, the TGI in test [19] is over 100 µM.

In the case of `CC(=O)O/C=C1/C[C@H]2[C@@H]3CCC4CC(C(C)=O)CC[C@]4(C)[C@H]3CC[C@]2(C)C1=O` (stereo not given in full), the TGI in test [1], in test [2], in [3], in [4], in [5] and in test [6] was over 100 µM in each case. Also, the TGI in [7], in test [8], in [9], in test [10], in [12] and in test [14] was over 100 µM throughout. Moreover, the TGI in test [15], in test [16], in test [17], in test [18] and in test [19] was over 100 µM throughout.

`Cc1c(S(=O)(=O)O)ccc(N=Nc2c(O)c(C(=O)O)cc3ccccc23)c1Cl`: the TGI in test [1], in test [2], in test [3], in [4], in test [5] and in test [6] was over 100 µM throughout. Besides, the TGI in test [7], in test [8], in test [9], in test [10], in [11] and in test [12] was over 100 µM throughout. For the same compound, the TGI in test [13], in [14], in test [15], in [16], in test [17] and in [18] was over 100 µM throughout. This compound yielded a TGI in [19] of over 100 µM.

As to `CN1C/C(=C\c2cccs2)C2=NN(C)C(c3cccs3)C2C1` (stereo not given), the TGI in test [1], in test [2], in test [3], in test [4], in test [5] and in test [6] was over 100 µM in each case. Further, the TGI is over 100 µM in [7]; over 100 µM in test [8]; over 100 µM in test [9]; over 100 µM in test [10]; over 100 µM in test [11]; 81.2 µM in test [12]. In addition, the TGI in test [13], in test [14], in test [15], in test [16], in test [17] and in test [18] was over 100 µM in each case. In addition, the TGI in test [19] was over 100 µM.

In the case of `Nc1nc(Cl)c(/C=N\O)c(NCC2(CO)CCC2)n1`, the TGI in test [1], in test [2], in [3], in [4], in test [20] and in test [6] was over 100 µM each time. Besides, the TGI was over 100 µM in [7]; over 100 µM in test [8]; over 100 µM in test [9]; 81.2 µM in [10]; over 100 µM in test [11]; over 100 µM in [14]. In addition, the TGI in test [15], in test [16], in [17], in test [18] and in test [19] was over 100 µM throughout.

For `C/C(=N\n1c(Cc2ccccc2)n[nH]c1=O)c1ccccc1`, the TGI in test [1], in [2], in test [3], in test [4], in test [20] and in [6] was over 100 µM each time. Further, the TGI in test [7], in [8], in [9], in test [10], in test [11] and in test [12] was over 100 µM in each case. In addition, the TGI in test [13], in test [14], in [15], in test [16], in test [17] and in [18] was over 100 µM each time. Further, the TGI in test [19] was over 100 µM.

On to `CCN(CC)CCC(=O)c1ccc(C)cc1`, for which the TGI was 42.4 µM in test [1]; 38.9 µM in [2]; 17.4 µM in [3]; over 100 µM in test [5]; over 100 µM in test [20]; 48.1 µM in [6]. Besides, the TGI in [7] was 25.8 µM; in [8] it was 49.6 µM; in [9], over 100 µM; in test [10], 52.2 µM; in test [11] it was over 100 µM; in test [13], 35.8 µM. Also, the TGI in test [14] is 36.8 µM; in test [15] it was 33.6 µM; in test [16] it was 42 µM; in test [17], over 100 µM; in test [19], 29 µM.

Values taken from PubChem BioAssay (NCI).
